Calls of active or inactive are those of the source. The calls are words filed in the database; no cut-off is given here.
Key:
[1] = test system: K562; test: Cell cycle arrest in human K562 cells assessed as accumulation at G0/G1 phase at 20 nM after 24 hrs by propidium iodide staining-based flow cytometry; type: functional
[2] = Displacement of [3H]colchicine from tubulin assessed as bound colchicine at […] incubated in dark for 2 hrs by scintillation spectroscopy
[3] = test system: K562; test: Cell cycle arrest in human K562 cells assessed as accumulation at G2/M phase at 20 nM after 24 hrs by propidium iodide staining-based flow cytometry; type: functional
[4] = Inhibition of tubulin assembly by Woods method
[5] = test system: K562; test: Antiproliferative activity against human K562 cells after 5 days by MTT assay; type: functional, cell-based; details: Homo sapiens, K562, 120 h
[6] = test system: K562; test: Cell cycle arrest in human K562 cells assessed as accumulation at S phase at 20 nM after 24 hrs by propidium iodide staining-based flow cytometry; type: functional
[7] = test system: Vero; test: Binding affinity to tubulin in african green monkey Vero cells assessed as aberration of microtubule arrangement at 10 uM after 40 mins by immunohistochemistry; type: cell-based; details: Chlorocebus sabaeus
[8] = test system: HUVEC; test: Antivascular activity in HUVEC cells assessed as change in cell shape at 1 uM after 1 hr by fluorescent-labeled high molecular weight F-dextran permeability assay; type: functional, cell-based; details: Homo sapiens
[9] = Inhibition of tubulin polymerization assessed as appearance of shorter and ring shaped tubulin by electron microscopy
[10] = Inhibition of tubulin polymerization assessed as appearance of twisted and shorter tubulin by electron microscopy

| Activity [2] | IC50 [4] | IC50 [5] | Activity [9] | Activity [10] | SMILES | Activity [1] | Activity [3] | Activity [6] | Activity [7] | Activity [8] |
| --- | --- | --- | --- | --- | --- | --- | --- | --- | --- | --- |
| 6% | 650 nM | 2 nM | – | – | COc1ccc(/C=C(\C)C(=O)c2cc(OC)c(OC)c(OC)c2)cc1F | 3% | 88% | 9% | Active | – |
| 12% | – | – | – | – | COc1ccc(C(=O)/C(C)=C/c2ccc(OC)c(OP(=O)(O)O)c2)cc1 | – | – | – | – | Active |
| 2% | 10000 nM | 12 nM | – | – | COc1ccc(OC)c(C(=O)/C(C)=C/c2ccc(N(C)C)cc2)c1 | 10% | 82% | 8% | Active | – |
| 8% | 460 nM | – | Active | – | COc1ccc(/C=C(\C)C(=O)c2cc(OC)c(OC)c(OC)c2)cc1O | 10% | 83% | 7% | Active | Active |

The next lines start with the compound.

| SMILES | Activity [2] | IC50 [4] | IC50 [5] | Activity [9] | Activity [10] | Activity [1] | Activity [3] | Activity [6] | Activity [7] | Activity [8] |
| --- | --- | --- | --- | --- | --- | --- | --- | --- | --- | --- |
| COc1cc(OC)c(/C=C/C(=O)c2cc(OC)c(OC)c(OC)c2)c(OC)c1 | 46% | 12000 nM | 200 nM | – | – | 10% | 72% | 18% | Active | – |
| CO/C(=C\c1cc(F)c(OC)c(F)c1)C(=O)c1cc(OC)c(OC)c(OC)c1 | 41% | 1700 nM | 360 nM | – | – | 30% | 55% | 15% | – | Active |
| COc1cc(C(=O)/C=C/c2ccc3c(c2)OCCO3)cc(OC)c1OC | 10% | 13000 nM | – | – | – | 27% | 50% | 23% | Active | – |
| COc1ccc(/C=C/C(=O)c2cc(OC)c(OC)c(OC)c2)cc1O | 9% | 620 nM | – | – | Active | 12% | 76% | 12% | – | Active |
| COc1ccc(/C=C/C(=O)c2ccc(OC)c(OC)c2)c(OC)c1 | 42% | 18000 nM | 300 nM | – | – | 26% | 47% | 27% | Active | – |
| CO/C(=C\c1ccc(OC)c(O)c1)C(=O)c1cc(OC)c(OC)c(OC)c1 | 5% | 510 nM | 1.5 nM | – | – | 4% | 84% | 12% | Active | Active |
| CO/C(=C\c1ccc(OC)c(F)c1)C(=O)c1cc(OC)c(OC)c(OC)c1 | 8% | 470 nM | 3.7 nM | – | – | 41% | 46% | 13% | – | Active |

From ChEMBL document CHEMBL1152676, “Combretastatin-like chalcones as inhibitors of microtubule polymerization. Part 1: synthesis and biological evaluation of antivascular activity” (Bioorg Med Chem, 2009)
